For experiment [1], the system named is ragweed (common ragweed, Ambrosia elatior). As to the kind of experiment: Test F pre-/postemergence: ragweed. Format: in vivo. As to conditions: Preemergence. Summed up:
(§1)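 Seeds were sown in silt loam soil and sprayed preemergence with test chemical in a non-phytotoxic solvent mixture containing surfactant; postemergence treatments went onto plants 2 to 18 cm tall (1- to 4-leaf stage) grown in peat moss/vermiculite medium. After 14 to 21 days in a greenhouse, injury was rated visually against controls, 0 (no effect) to 100 (complete control).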

The test system of experiment [2] is field bindweed (Convolvulus arvensis). The experiment can be described thus: Test F pre-/postemergence: field bindweed. Type of experiment: in vivo. Particulars: Preemergence. Summed up: as §1
Experiment [3] relates to nightshade (eastern black nightshade, Solanum ptycanthum). As to the kind of experiment: Test F pre-/postemergence: nightshade. As to conditions: Preemergence. Type of experiment: in vivo. The source says:
Seeds of plant species selected from corn (Zea mays), soybean (Glycine max), velvetleaf (Abutilon theophrasti), lambsquarters (Chenopodium album), poinsettia, wild (wild poinsettia, Euphorbia heterophylla), pigweed, palmer (palmer pigweed, Amaranthus palmeri), waterhemp (common waterhemp, Amaranthus rudis), surinam grass (Brachiaria decumbens), crabgrass, Brazil (Brazilian crabgrass, Digitaria horizontalis), panicum, fall (fall panicum Panicum dichotomiflorum), crabgrass, large (large crabgrass, Digitaria sanguinalis), foxtail, giant (giant foxtail, Setaria faberii), foxtail, green (green foxtail Setaria viridis), goosegrass (Eleusine indica), ragweed (common ragweed, Ambrosia elatior), barnyardgrass (Echinochloa crus-galli), sandbur (southern sandbur, Cenchrus echinatus), arrowleaf sida (Sida rhombifolia), ryegrass, Italian (Italian ryegrass, Lolium multiflorum), dayflower, VA (Virginia (VA) dayflower, Commelina virginica), field bindweed (Convolvulus arvensis), cocklebur (common cocklebur, Xanthium strumarium), morningglory (Ipomoea coccinea), nightshade (eastern black nightshade, Solanum ptycanthum), kochia (Kochia scoparia), nutsedge, yellow (yellow nutsedge, Cyperus esculentus), johnsongrass (Sorghum halepense), smartweed (ladysthumb smartweed, Polygonum persicaria), and beggarticks (hairy beggarticks, Bidens pilosa), were planted into a silt loam soil and treated preemergence with test chemicals formulated in a non-phytotoxic solvent mixture which included a surfactant. At the same time, plants selected from these crop and weed species and also pigweed (Amaranthus retroflexus), waterhemp_RES1 (ALS/Triazine resistant common waterhemp, Amaranthus rudis) and waterhemp_RES2 (ALS/HPPD resistant common waterhemp, Amaranthus rudis) were planted in pots containing a planting medium comprising spaghnum peat moss, vermiculite, wetting agent and starter nutrients treated with postemergence applications of some of the test chemicals formulated in the same manner. Plants ranged in height from 2 to 18 cm for postemergence treatments (1- to 4-leaf stage).
Treated plants and controls were maintained in a greenhouse for 14 to 21 days, after which time all species were compared to controls and visually evaluated. Plant response ratings, summarized in Table E, are based on a scale of 0 to 100 where 0 is no effect and 100 is complete control. A dash (-) response means no test result.

A further experiment concerns Barnyardgrass. The experiment can be described thus: Test C postemergence: barnyardgrass. Type of experiment: in vivo, Echinochloa crus-galli. Particulars: 125 g ai/ha, scale 0 to 100, 0 no effect, 100 complete control. The source says: Seeds of plant species selected from blackgrass (Alopecurus myosuroides), bromegrass, downy (downy bromegrass, Bromus tectorum), foxtail, green (green foxtail, Setaria viridis), ryegrass, Italian (Italian ryegrass, Lolium multiflorum), winter wheat (Triticum aestivum), wild oat (Avena fatua), galium (catchweed bedstraw, Galium aparine), bermudagrass (Cynodon dactylon), surinam grass (Brachiaria decumbens), cocklebur (common cocklebur, Xanthium strumarium), corn (Zea mays), large crabgrass (Digitaria sanguinalis), woolly cupgrass (Eriochloa villosa), foxtail, giant (giant foxtail, Setaria faberii), goosegrass (Eleusine indica), johnsongrass (Sorghum halepense), kochia (Kochia scoparia), lambsquarters (Chenopodium album), morningglory (Ipomoea coccinea), nightshade (eastern black nightshade, Solanum ptycanthum), nutsedge, yellow (yellow nutsedge, Cyperus esculentus), pigweed (Amaranthus retroflexus), ragweed (common ragweed, Ambrosia elation), soybean (Glycine max), common (oilseed) sunflower (Helianthus annuus), Russian thistle (Salsola kali) and velvetleaf (Abutilon theophrasti) were planted into a blend of loam soil and sand and treated preemergence with test chemicals formulated in a non-phytotoxic solvent mixture which included a surfactant.
At the same time, plants selected from these crop and weed species and also barley (winter barley, Hordeum vulgare), canarygrass (Phalaris minor), chickweed (common chickweed, Stellaria media) windgrass (Apera spica-venti) and deadnettle (henbit deadnettle, Lamium amplexicaule) were planted in pots containing Redi-Earth® planting medium (Scotts Company, 14111 Scottslawn Road, Marysville, Ohio 43041) comprising spaghnum peat moss, vermiculite, wetting agent and starter nutrients and treated with postemergence applications of test chemicals formulated in the same manner. Plants ranged in height from 2 to 18 cm (1- to 4-leaf stage) for postemergence treatments.
Treated plants and controls were maintained in a greenhouse for 13 to 15 days, after which time all species were compared to controls and visually evaluated. Plant response ratings, summarized in Table C, are based on a scale of 0 to 100 where 0 is no effect and 100 is complete control. A dash (-) response means no test result.

[4] abbreviates: 16 g ai/ha, scale 0 to 100 (0 no effect, 100 complete control).
[5] abbreviates: 31 g ai/ha, scale 0 to 100 (0 no effect, 100 complete control).

For `CCCc1nn(-c2ccc(F)cc2)nc1Cc1ccnc(C(F)(F)F)c1` [Compound 153], the “Plant response rating, Ragweed” value in experiment [1] (setting [4]) is given as 5; in experiment [1] (setting [5]) it was 5; in experiment [1] (125 g ai/ha, scale 0 to 100) it was 20; in experiment [1] (250 g ai/ha, scale 0 to 100), 80. Further, the “Plant response rating, Field Bindweed” value in experiment [2] (setting [4]) came out at 5; in experiment [2] (setting [5]), 65; in experiment [2] (62 g ai/ha, scale 0 to 100), 65; in experiment [2] (125 g ai/ha, scale 0 to 100), 100; in experiment [2] (250 g ai/ha, scale 0 to 100), 100. Also, the “Plant response rating, Nightshade” value in experiment [3] (setting [4]) is recorded as 50; in experiment [3] (setting [5]), 50; in experiment [3] (125 g ai/ha, scale 0 to 100), 100; in experiment [3] (250 g ai/ha, scale 0 to 100), 100. Besides, in the experiment with Barnyardgrass, the “Plant response rating, Barnyardgrass” value is 45.
